# From patent publication US20070203216A1, “METHOD OF TREATING INFLAMMATORY DISEASES” (priority 2006, published 2007)
# Entries after “also recorded” stand apart in the source; their conditions may differ.
# Experiments:
# [1] = test system: chronic mild stress rats; test: Chronic mild stress model in rats, serum marker analysis; settings: CMS rats; for reversal of stress-induced alterations in serum markers: versus non-stressed controls;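 as to all read-outs here: terminal serum drawn from the tail of rats 24 h after the final drug dose, profiled within a panel of roughly 60 blood markers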
# Method: At the end of the present study, terminal serum samples were collected for marker analysis to evaluate the effects of stress with and without drug on the levels of about 60 blood markers.
# Serum samples were withdrawn from the tail, without stunning, during the daytime (09:00-17:00) 24 hrs after the last drug injection. Blood was collected into BD vacutainers containing clot activator and gel for serum preparation, inverted 5 times and maintained on ice until centrifugation at 3000 rpm for 10 min at 4° C. Serum was decanted, placed on ice, and at the end of the day stored at −80° C.
# [2] = test system: formalin pain model; settings: U.S. Patent Application Publication No. 2005/0288371; cited from earlier work
# [3] = 1st study, 5 mg/kg, serum, median
# [4] = 2nd study, 10 mg/kg, serum, median
smiles,measurement,setting,value
"CN(C)CCC[C@@]1(c2ccc(F)cc2)OCc2cc(C#N)ccc21 [ESC, Escitalopram, reference compound]",Apo A1 (Apolipoprotein A1),[1]; [3],8.40 µg/mL
same,CRP (C Reactive Protein),[1]; [3],1060.00 µg/mL
same,Eotaxin,[1]; [3],1300.00 pg/mL
same,FGF-9 (Fibroblast Growth Factor-9),[1]; [3],0.90 ng/mL
same,GCP-2 (Granulocyte Chemotactic Protein-2),[1]; [3],0.21 ng/mL
same,Growth Hormone,[1]; [3],1.38 ng/mL
same,IL-1alpha (Interleukin-1alpha),[1]; [3],15.40 pg/mL
same,IL-2 (Interleukin-2),[1]; [3],38.80 pg/mL
same,IL-4 (Interleukin-4),[1]; [3],51.70 pg/mL
same,IL-7 (Interleukin-7),[1]; [3],0.22 ng/mL
same,IL-10 (Interleukin-10),[1]; [3],317.00 pg/mL
same,IL-11 (Interleukin-11),[1]; [3],166.00 pg/mL
same,IP-10 (Inducible Protein-10),[1]; [3],194.00 pg/mL
same,IgA (Immunoglobulin A),[1]; [3],6.54 µg/mL
same,Insulin,[1]; [3],11.30 ulU/mL
same,LIF (Leukemia Inhibitory Factor),[1]; [3],67.20 pg/mL
same,Leptin,[1]; [3],2.62 ng/mL
same,Lymphotactin,[1]; [3],68.00 pg/mL
same,M-CSF (Macrophage-Colony Stimulating Factor),[1]; [3],941.00 ng/mL
same,MCP-1 (Monocyte Chemoattractant Protein-1),[1]; [3],1500.00 pg/mL
same,MCP-3 (Monocyte Chemoattractant Protein-3),[1]; [3],885.00 pg/mL
same,MCP-5 (Monocyte Chemoattractant Protein-5),[1]; [3],0.87 pg/mL
same,MIP-1alpha (Macrophage Inflammatory Protein-1alpha),[1]; [3],244.00 ng/mL
same,MIP-1gamma (Macrophage Inflammatory Protein-1gamma),[1]; [3],11.50 ng/mL
same,MIP-2 (Macrophage Inflammatory Protein-2),[1]; [3],0.09 pg/mL
same,MPO (Myeloperoxidase),[1]; [3],54.60 ng/mL
same,NGAL (Lipocalin-2),[1]; [3],0.22 ng/mL
same,Osteopontin,[1]; [3],310.00 ng/mL
same,SAP (Serum Amyloid P),[1]; [3],178.00 µg/mL
same,SCF (Stem Cell Factor),[1]; [3],16.95 pg/mL
same,SGOT (Serum Glutamic-Oxaloacetic Transaminase),[1]; [3],0.31 µg/mL
same,TIMP-1 (Tissue Inhibitor of Metalloproteinase Type-1),[1]; [3],0.22 ng/mL
same,TPO (Thrombopoietin),[1]; [3],142.00 ng/mL
same,Tissue Factor,[1]; [3],0.15 ng/mL
same,VCAM-1 (Vascular Cell Adhesion Molecule-1),[1]; [3],409.00 ng/mL
same,VEGF (Vascular Endothelial Cell Growth Factor),[1]; [3],106.00 pg/mL
same,reversal of stress-induced alterations in serum markers,[1],inactive at most of these changes
"Oc1noc2c1CCNC2 [GBX, 4,5,6,7-tetrahydroisoxazolo [5,4-c] pyridine-3-ol]",pain response in phase 2 of the formalin pain model,[2],inhibit the pain response in phase 2
same,Apo A1 (Apolipoprotein A1),[1]; [3],8.20 µg/mL
same,CRP (C Reactive Protein),[1]; [3],1140.00 µg/mL
same,Cystatin-C,[1]; [3],1165.00 ng/mL
same,FGF-9 (Fibroblast Growth Factor-9),[1]; [3],0.59 ng/mL
same,GCP-2 (Granulocyte Chemotactic Protein-2),[1]; [3],0.19 ng/mL
same,Growth Hormone,[1]; [3],7.67 ng/mL
same,IL-1alpha (Interleukin-1alpha),[1]; [3],11.30 pg/mL
same,IL-2 (Interleukin-2),[1]; [3],31.30 pg/mL
same,IL-4 (Interleukin-4),[1]; [3],29.60 pg/mL
same,IL-7 (Interleukin-7),[1]; [3],0.16 ng/mL
same,IL-10 (Interleukin-10),[1]; [3],249.00 pg/mL
same,IL-11 (Interleukin-11),[1]; [3],128.00 pg/mL
same,IL-18 (Interleukin-18),[1]; [3],0.07 ng/mL
same,IP-10 (Inducible Protein-10),[1]; [3],138.00 pg/mL
same,IgA (Immunoglobulin A),[1]; [3],5.91 µg/mL
same,Insulin,[1]; [3],8.88 ulU/mL
same,LIF (Leukemia Inhibitory Factor),[1]; [3],53.90 pg/mL
same,Leptin,[1]; [3],2.59 ng/mL
same,Lymphotactin,[1]; [3],53.80 pg/mL
same,M-CSF (Macrophage-Colony Stimulating Factor),[1]; [3],865.00 ng/mL
same,MCP-1 (Monocyte Chemoattractant Protein-1),[1]; [3],1185.00 pg/mL
same,MCP-3 (Monocyte Chemoattractant Protein-3),[1]; [3],655.00 pg/mL
same,MCP-5 (Monocyte Chemoattractant Protein-5),[1]; [3],0.77 pg/mL
same,MIP-1alpha (Macrophage Inflammatory Protein-1alpha),[1]; [3],173.00 ng/mL
same,MIP-1gamma (Macrophage Inflammatory Protein-1gamma),[1]; [3],7.95 ng/mL
same,MIP-2 (Macrophage Inflammatory Protein-2),[1]; [3],0.08 pg/mL
same,MPO (Myeloperoxidase),[1]; [3],20.80 ng/mL
same,NGAL (Lipocalin-2),[1]; [3],0.17 ng/mL
same,Osteopontin,[1]; [3],396.00 ng/mL
same,SAP (Serum Amyloid P),[1]; [3],133.00 µg/mL
same,SCF (Stem Cell Factor),[1]; [3],14.85 pg/mL
same,SGOT (Serum Glutamic-Oxaloacetic Transaminase),[1]; [3],0.21 µg/mL
same,TIMP-1 (Tissue Inhibitor of Metalloproteinase Type-1),[1]; [3],0.16 ng/mL
same,TPO (Thrombopoietin),[1]; [3],147.00 ng/mL
same,Tissue Factor,[1]; [3],0.10 ng/mL
same,VCAM-1 (Vascular Cell Adhesion Molecule-1),[1]; [3],361.00 ng/mL
same,VEGF (Vascular Endothelial Cell Growth Factor),[1]; [3],81.00 pg/mL
same,Apo A1 (Apolipoprotein A1),[1]; [4],6.20 µg/mL
same,Beta-2 Microglobulin,[1]; [4],38.00 µg/mL
same,CRP (C Reactive Protein),[1]; [4],1030.00 µg/mL
same,Clusterin,[1]; [4],108.00 µg/mL
same,Cystatin-C,[1]; [4],696.00 ng/mL
same,Eotaxin,[1]; [4],1072.00 pg/mL
same,FGF-9 (Fibroblast Growth Factor-9),[1]; [4],1.70 ng/mL
same,Factor VII,[1]; [4],0.30 ng/mL
same,GCP-2 (Granulocyte Chemotactic Protein-2),[1]; [4],0.29 ng/mL
same,GST-Mu,[1]; [4],1190.00 ng/mL
same,Growth Hormone,[1]; [4],3.10 ng/mL
same,IL-1beta (Interleukin-1beta),[1]; [4],0.56 ng/mL
same,IL-2 (Interleukin-2),[1]; [4],22.00 pg/mL
same,IL-5 (Interleukin-5),[1]; [4],0.24 ng/mL
same,IL-7 (Interleukin-7),[1]; [4],0.06 ng/mL
same,IL-10 (Interleukin-10),[1]; [4],362.00 pg/mL
same,IL-18 (Interleukin-18),[1]; [4],0.43 ng/mL
same,IP-10 (Inducible Protein-10),[1]; [4],41.00 pg/mL
same,IgA (Immunoglobulin A),[1]; [4],4.30 µg/mL
same,Insulin,[1]; [4],14.50 ulU/mL
same,LIF (Leukemia Inhibitory Factor),[1]; [4],67.00 pg/mL
same,Leptin,[1]; [4],1.35 ng/mL
same,Lymphotactin,[1]; [4],63.00 pg/mL
same,M-CSF (Macrophage-Colony Stimulating Factor),[1]; [4],1400.00 ng/mL
same,MCP-1 (Monocyte Chemoattractant Protein-1),[1]; [4],1020.00 pg/mL
same,MCP-3 (Monocyte Chemoattractant Protein-3),[1]; [4],659.00 pg/mL
same,MCP-5 (Monocyte Chemoattractant Protein-5),[1]; [4],0.72 pg/mL
same,MDC (Macrophage-Derived Chemokine),[1]; [4],0.12 pg/mL
same,MIP-1alpha (Macrophage Inflammatory Protein-1alpha),[1]; [4],127.00 ng/mL
same,MIP-1beta (Macrophage Inflammatory Protein-1beta),[1]; [4],0.01 pg/mL
same,MIP-1gamma (Macrophage Inflammatory Protein-1gamma),[1]; [4],19.00 ng/mL
same,MIP-2 (Macrophage Inflammatory Protein-2),[1]; [4],0.22 pg/mL
same,MIP-3beta (Macrophage Inflammatory Protein-3beta),[1]; [4],29.70 ng/mL
same,MPO (Myeloperoxidase),[1]; [4],533.00 ng/mL
same,Myoglobin,[1]; [4],520.00 ng/mL
same,NGAL (Lipocalin-2),[1]; [4],0.15 ng/mL
same,OSM (Oncostatin M),[1]; [4],19.10 ng/mL
same,Osteopontin,[1]; [4],255.00 ng/mL
same,"RANTES (Regulation Upon Activation, Normal T-Cell Expressed and Secreted)",[1]; [4],10.60 pg/mL
same,SAP (Serum Amyloid P),[1]; [4],403.00 µg/mL
same,SCF (Stem Cell Factor),[1]; [4],11.30 pg/mL
same,SGOT (Serum Glutamic-Oxaloacetic Transaminase),[1]; [4],8.53 µg/mL
same,TIMP-1 (Tissue Inhibitor of Metalloproteinase Type-1),[1]; [4],0.24 ng/mL
same,TNF-alpha (Tumor Necrosis Factor-alpha),[1]; [4],4.45 ng/mL
same,TPO (Thrombopoietin),[1]; [4],119.00 ng/mL
same,Tissue Factor,[1]; [4],0.06 ng/mL
same,VCAM-1 (Vascular Cell Adhesion Molecule-1),[1]; [4],353.00 ng/mL
same,VEGF (Vascular Endothelial Cell Growth Factor),[1]; [4],78.00 pg/mL
same,reversal of stress-induced alterations in serum markers,[1]; listed as gaboxadol,significantly reversed the stress-induced alterations in serum markers; also recorded: dose dependently is able to reverse or partially reverse changes
